One test concerns the target CaCiv1 (Candida albicans, UniProt A0A1D8PH53). Put plainly: Assay for inhibition of CIV-CDK (CIV1) activity. The format is biochemical. The source says:
1) Assay for Inhibition of CIV-CDK (CIV1) Activity
a) Preparation of the Reagents

The next test concerns Candida glabrata. Put plainly: Minimum inhibitory concentration in liquid medium, micro method (NCCLS M27-A). The test is classed as cell-based. As to conditions: Nakaseomyces glabratus; at least 80% inhibition of growth, read after 24-48 h at 37° C., RPMI 1640; read-out: MIC Candida glabrata. As to the method: (§1) The assay is carried out in a final volume of 40 μl; all the reagents are prepared in a buffer: • 50 mM HEPES pH 7.5 • 0.03% triton X100 • 10 mM MgCl2 • 5% Glycerol • 1 mM DTT 10 μl of the 10-times concentrated inhibitor are added to 5 μl of enzyme (75 ng final concentration), and 5 μl of peptide (1 μM final concentration), then 2.5 μl of incubation buffer containing 40 μM ATP and 2.5 μl of radiolabeled ATP, [^33P]ATP (500 nCi), are added. After incubation for 15 minutes at ambient temperature, 10 μl of incubation buffer containing 192 nM of substrate. […] Reference method for broth dilution antifungal susceptibility testing of yeasts. Approved Standard M27-A. NCCLS, Villanova, Pa.); the minimum concentration with which a visible decrease is observed in the cloudiness of the cell growth (at least 80% compared to a control without product) is the Minimum Inhibitory Concentration (MIC) of the antifungal agent with respect to the strain tested.
(§2) RPMI 1640 medium (liquid) without L-glutamine is supplemented with L-glutamine (0.3 g/l or 10.5 ml of a solution at 200 mM) and buffered with 34.54 g/l (0.165 M) of morpholinepropanesulfonic acid (MOPS). The medium is sterilized by filtration. 100 μl of RPMI medium are distributed into each well of a 96-well plate. The appropriate volume. of the antifungal solution is distributed in the first column of the microplate and supplemented with 200 μl of medium. Doubling dilutions are made so as to establish a range of 11 concentrations in each line of the microplate. The 12th well of each row will serve as a growth control. The cell suspension is prepared from a culture (liquid or agar) or from a frozen vial, and is diluted in RPMI medium so as to obtain a cell suspension at 5×10^3−2×10^4 cells/ml. 100 μl of the cell suspension are distributed in the microplate. For all species of Candida, the MIC is read after 24-48 h, and for Cryptococcus and Aspergillus after 48-72 h, of incubation at 37° C. in a normal atmosphere. The MIC is read by visual reading, determining the well which contains the lowest dose of antifungal agent which causes at least 80% inhibition of the growth of the fungus.

The subject of a further test is Candida albicans. Described as above. The test is classed as cell-based. As to conditions: at least 80% inhibition of growth, read after 24-48 h at 37° C., RPMI 1640, read-out: MIC Candida albicans. As to the method: as §1, §2
In another test the target is JNK3 kinase (Homo sapiens, UniProt P53779). Put plainly: Assay for inhibition of JNK3 activity. The test is classed as biochemical. As to conditions: fluorescence polarization, ATP 6 μM; read-out: IC50s expressed as micromolar. On the procedure:
The inhibition of the kinase activity is determined by fluorescence polarization, the JNK3 kinase phosphorylates a peptide detected by adding an anti-phosphopeptide antibody coupled to a fluorescent label.
The assay is carried out in a final volume of 30 μl; all the reagents are prepared in a buffer: • 50 mM HEPES pH 7.5 • 0.03% triton X100 • 10 mM MgCl2 • 5% Glycerol • 1 mM DTT 10 μl of the 10-times concentrated inhibitor are added to 5 μl of enzyme (40 ng final concentration), and 5 μl of incubation buffer containing 100 ng of substrate and 10 μl of ATP (6 μM final concentration) are added.

A further test concerns the target T1, SRC kinase (Homo sapiens, UniProt P12931).
T1 construct: purchased Upstate Biotechnology 14-117
Put plainly: Assay for inhibition of SRC kinase activity. As to conditions: fluorescence polarization, read-out: percentage inhibition at 20 μM. The test is classed as biochemical. As to the method: 2) Assay for Inhibition of SRC Kinase Activity
The inhibition is determined by fluorescence polarization, the […] kinase phosphorylates a peptide detected by adding an anti-phosphopeptide antibody coupled to a fluorescent label.
The assay is carried out in a final volume of 50 μl; all the reagents are prepared in a buffer: • 25 mM HEPES/NaOH pH 7.6 • 5 mM MgCl2 • 2 mM MnCl2 • 50 μM Na2VO4 5 μl of the 10-times concentrated inhibitor are added to 25 μl of enzyme (12 U/ml final concentration), (Upstate Biotechnology ref 14-117). After incubation for 5 minutes at ambient temperature, 10 μl of PolyGluTyr 4/1 (150 ng/ml final concentration) and 10 μl of ATP (5 μM final concentration) are added. The detection is carried out after incubation for 20 minutes at ambient temperature. • Results obtained expressed as percentage inhibition at 20 μM • Example 8 98% • Example 15 99% • Example 20 99% • Example 24 99% • Example 27 95% • Example 30 99% • Example 32 100% • Example 38 95% 3) Assay for Inhibition of CDK2 Activity

Test [1] has as its target Cyclin Dependent kinase 2 (CDK2) (Homo sapiens, UniProt P24941). Put plainly: Assay for inhibition of CDK2 activity. The format is biochemical. As to conditions: [33P]ATP, read-out: percentage inhibition at 20 μM. On the procedure:
The inhibition of the kinase activity of Cyclin Dependent kinase 2 (CDK2) is determined by measuring the phosphorylation of its substrate peptide.
The assay is carried out in a final volume of 50 μl.
The incubation buffer as follows:
• 50 mM Hepes/NaOH pH 7.5 • 10 mM MgCl2 • 1 mM DTT 5 μl of the 10-times concentrated inhibitor are added to 25 μl of incubation buffer containing 0.8 U/μL final concentration of the enzyme; 10 μL of incubation buffer containing 0.0025 mg/ml of peptide substrate are then added and, finally, 10 μL of incubation buffer containing 2 mM ATP and radiolabeled ATP, [^33P]ATP (0.25 μCi), are added. The reaction is stopped after incubation for 10 minutes at 37° C. • Results obtained expressed as percentage inhibition at 20 μM • Example 2 97% • Example 27 97% • Example 30 99% 4) Assay for Inhibition of CDK1 Activity

A further test deals with Abl kinase. Put plainly: Assay for inhibition of Abl activity. The test is classed as biochemical. As to conditions: fluorescence polarization. On the procedure:
The inhibition of the kinase activity is determined by fluorescence polarization, the Abl kinase phosphorylates a peptide detected by adding an anti-phosphopeptide antibody coupled to a fluorescent label.
The assay is carried out in a final volume of 50 μl; all the reagents are prepared in a buffer: • 20 mM Hepes/NaOH pH 7.5 • 5 mM MgCl2 • 100 μM Na2VO4 • 1 mM DTT • 100 μM EDTA/NaOH • 0.01% Brij35 5 μl of the 10-times concentrated inhibitor are added to 25 μl of enzyme (1000 U/ml final concentration), (Calbiochem ref 102555). After incubation for 5 minutes at ambient temperature, 10 μL of PolyGT (400 ng/ml final concentration) and 10 μL of ATP (5 μM final concentration) are added. The detection is carried out after incubation for 15 minutes at 30° C. • Results obtained expressed as percentage inhibition at 20 μM • Example 24 100% • Example 2 100% • Example 32 100% 6) Assay for Inhibition of ZAP Kinase Activity

Setting [2] is: CaCiv1 with Cdk2 substrate, [33P]ATP, 30 min ambient temperature, read-out: IC50 as micromolar.

≈ marks a conversion by molar mass, not a printed value. Where a name gives a salt, the structure may show the parent alone. Read-outs that look alike come from different tables or passages of the source.

CaCiv1, sequence (A0A1D8PH53 entry or part of it): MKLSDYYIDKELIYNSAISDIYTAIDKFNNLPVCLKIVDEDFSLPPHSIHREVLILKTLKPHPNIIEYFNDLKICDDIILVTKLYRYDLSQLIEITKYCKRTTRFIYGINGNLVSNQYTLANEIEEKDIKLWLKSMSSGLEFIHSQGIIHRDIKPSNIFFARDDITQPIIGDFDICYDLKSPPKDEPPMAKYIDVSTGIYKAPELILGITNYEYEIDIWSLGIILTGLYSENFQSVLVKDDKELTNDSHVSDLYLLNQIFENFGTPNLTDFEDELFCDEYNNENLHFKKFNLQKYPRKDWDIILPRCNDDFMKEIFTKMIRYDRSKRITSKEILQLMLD
JNK3 kinase, sequence (P53779 whole entry): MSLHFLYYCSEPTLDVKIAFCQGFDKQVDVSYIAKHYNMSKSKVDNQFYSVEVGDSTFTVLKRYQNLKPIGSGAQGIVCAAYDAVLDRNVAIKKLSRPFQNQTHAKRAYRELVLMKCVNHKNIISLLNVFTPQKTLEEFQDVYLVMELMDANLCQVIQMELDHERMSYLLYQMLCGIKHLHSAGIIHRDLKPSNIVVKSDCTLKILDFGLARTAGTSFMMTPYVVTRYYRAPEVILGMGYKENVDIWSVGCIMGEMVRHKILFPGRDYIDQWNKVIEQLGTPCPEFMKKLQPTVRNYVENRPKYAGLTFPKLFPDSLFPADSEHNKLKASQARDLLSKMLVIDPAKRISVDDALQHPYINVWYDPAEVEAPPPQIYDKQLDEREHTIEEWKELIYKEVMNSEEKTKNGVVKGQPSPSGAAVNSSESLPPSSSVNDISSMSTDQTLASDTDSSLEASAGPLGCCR
T1 sequence (P12931 whole entry): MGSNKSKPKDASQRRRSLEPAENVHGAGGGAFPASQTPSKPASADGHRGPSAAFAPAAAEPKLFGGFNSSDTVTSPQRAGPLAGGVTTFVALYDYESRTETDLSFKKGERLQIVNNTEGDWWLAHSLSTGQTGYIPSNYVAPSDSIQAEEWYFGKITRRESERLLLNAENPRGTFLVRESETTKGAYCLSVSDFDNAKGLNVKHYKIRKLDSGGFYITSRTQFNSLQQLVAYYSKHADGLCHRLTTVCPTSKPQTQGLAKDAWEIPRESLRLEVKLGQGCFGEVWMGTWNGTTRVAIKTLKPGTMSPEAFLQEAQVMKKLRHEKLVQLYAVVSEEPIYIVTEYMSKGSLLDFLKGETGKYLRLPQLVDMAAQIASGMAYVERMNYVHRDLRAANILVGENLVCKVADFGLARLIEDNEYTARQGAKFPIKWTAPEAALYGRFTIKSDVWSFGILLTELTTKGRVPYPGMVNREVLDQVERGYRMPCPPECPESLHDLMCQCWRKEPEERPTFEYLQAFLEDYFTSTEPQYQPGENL

On to `N[C@H]1CC[C@H](Nc2nc(N3CCc4cc(NC(=O)Cc5cccs5)ccc43)c3nc[nH]c3n2)CC1` [Example 41, Trans-N-[1-[2-[(4-aminocyclohexyl)amino]-9H-purin-6-yl]-2,3-dihydro-1H-indol-5-yl]-2-thiopheneacetamide], for which the IC50 on CaCiv1 (setting [2]) worked out at 0.95 µM.
The same measure, in the same setting: the result for `N[C@H]1CC[C@H](Nc2nc(N3CCc4ccc([N+](=O)[O-])cc43)c3nc[nH]c3n2)CC1` [Example 44, Trans-N-[6-(6-nitro-2,3-dihydro-1H-indol-1-yl)-9H-purin-2-yl]-1,4-cyclohexanediamine] reads 0.02 µM; that for `N[C@H]1CC[C@H](Nc2nc(N3CCc4cc(NC(=O)Nc5ccc(Cl)c(Cl)c5)ccc43)c3nc[nH]c3n2)CC1` [Example 43, Trans-N-[1-[2-[(4-aminocyclohexyl)amino]-9H-purin-6-yl]-2,3-dihydro-1H-indol-5-yl]-N′-(3,4-dichlorophenyl)urea], 4.4 µM.
As to `Cc1cc2ncn(-c3nc(N[C@H]4CC[C@H](N)CC4)nc4[nH]cnc34)c2cc1C` [Example 5, Trans-N-[6-(5,6-dimethyl-1H-benzimidazol-1-yl)-9H-purin-2-yl]-1,4-cyclohexanediamine], the MIC in the test on Candida glabrata and with Candida albicans was 64 µg/mL (≈ 170 µM) throughout. Also, the IC50 on CaCiv1 (setting [2]) came out at 1.1 µM.
On to `N[C@H]1CC[C@H](Nc2nc(N3CCc4cc(Cl)ccc43)c3nc[nH]c3n2)CC1` [Example 7, Trans-N-[6-(5-chloro-2,3-dihydro-1H-indol-1-yl)-9H-purin-2-yl]-1,4-cyclohexanediamine], for which the IC50 at CaCiv1 (setting [2]) turned out to be 3.6 µM.
As to `N[C@H]1CC[C@H](Nc2nc(N3CCc4ccc(C(F)(F)F)cc43)c3nc[nH]c3n2)CC1` [Example 40, Trans-N-[6-[2,3-dihydro-6-(trifluoro-methyl)-1H-indol-1-yl)-9H-purin-2-yl]-1,4-cyclohexanediamine], the IC50 on CaCiv1 (setting [2]) is 0.2 µM.
Take `N[C@H]1CC[C@H](Nc2nc(N3CCc4cc(F)ccc43)c3nc[nH]c3n2)CC1` [Example 38, Trans-N-[6-(5-fluoro-2,3-dihydro-1H-indol-1-yl)-9H-purin-2-yl]-1,4-cyclohexanediamine dihydrochloride]: the IC50 on JNK3 kinase turned out to be 0.42 µM. The inhibition at 20 µM at SRC kinase came to 95%.
Consider `CC(=O)c1ccc2c(c1)CCN2c1nc(N[C@H]2CC[C@H](N)CC2)nc2[nH]cnc12` [Example 39, Trans-1-[1-[2-[(4-aminocyclohexyl)amino]-9H-purin-6-yl]-2,3-dihydro-1H-indol-5-yl]ethanone], for which the IC50 on CaCiv1 (setting [2]) is 3.6 µM.
Same read-out and setting: in the case of `Nc1ccc2c(c1)CCN2c1nc(N[C@H]2CC[C@H](N)CC2)nc2[nH]cnc12` [Example 46, Trans-N-[6-(5-amino-2,3-dihydro-1H-indol-1-yl)-9H-purin-2-yl]-1,4-cyclohexanediamine] it was 2 µM; in that of `CN(C)c1ccc(NC(=O)Nc2ccc3c(c2)CCN3c2nc(N[C@H]3CC[C@H](N)CC3)nc3[nH]cnc23)cc1` [Example 45, Trans-N-[1-[2-[(4-aminocyclohexyl)amino]-9H-purin-6-yl]-2,3-dihydro-1H-indol-5-yl]-N′-[4-(dimethylamino)phenyl]urea], 1.3 µM.
Regarding `N[C@H]1CC[C@H](Nc2nc(N3CCc4cc(NC(=O)CCc5ccccc5)ccc43)c3nc[nH]c3n2)CC1` [Example 42, Trans-N-[1-[2-[(4-aminocyclohexyl)amino]-9H-purin-6-yl]-2,3-dihydro-1H-indol-5-yl]benzenepropanamide], on CaCiv1 (setting [2]), the IC50 turned out to be 3.3 µM.
Turning to `COc1ccc2c(c1)ncn2-c1nc(N[C@H]2CC[C@H](N)CC2)nc2[nH]cnc12` [Example 15, Trans-N-[6-(5-methoxy-1H-benzimidazol-1-yl)-9H-purin-2-yl]-1,4-cyclohexanediamine dihydrochloride], the results for the IC50 at JNK3 kinase and on CaCiv1 were 0.5 µM and 0.3 µM, respectively. Further, at SRC kinase, the inhibition at 20 µM worked out at 99%.
As to `CC[C@@H](CO)Nc1nc(-n2cnc3ccccc32)c2nc[nH]c2n1` [Example 27, (2S)-2-[[6-(1H-benzimidazol-1-yl)-9H-purin-2-yl]amino]-1-butanol], the IC50 was 0.29 µM on JNK3 kinase and 4.3 µM on CaCiv1 (setting [2]). Also, the inhibition at 20 µM at SRC kinase was 95%; in test [1] it was 97%.
`N[C@H]1CC[C@H](Nc2nc(-n3ccc4ccccc43)c3nc[nH]c3n2)CC1` [Example 16, Trans-N-[6-(1H-indol-1-yl)-9H-purin-2-yl]-1,4-cyclohexanediamine dihydrochloride] displayed an IC50 against CaCiv1 of 0.31 µM.
Turning to `N[C@H]1CC[C@H](Nc2nc(N3CCc4cc(Br)ccc43)c3nc[nH]c3n2)CC1` [Example 32, Trans-N-[6-(5-bromo-2,3-dihydro-1H-indol-1-yl)-9H-purin-2-yl]-1,4-cyclohexanediamine], the inhibition at 20 µM on SRC kinase is 100%. The “percentage inhibition at 20 μM” value in the test with Abl kinase was 100%. For the same molecule, the MIC in the test with Candida glabrata and with Candida albicans was 64 µg/mL (≈ 149 µM) each time.

The values above are taken from patent US7476670B2, “Purine derivatives, method for preparing, pharmaceutical compositions and novel use” (Aventis Pharma S.A., priority 2003, dated 2009).
